In US6262031A, “Method for treating pediculosis capitisinfestation” (Merck & Co., Inc., priority 2000, dated 2001):

How the values were obtained:
head lice [1] = experiment: Example 2: comparison of head lice treatment using orally administered ivermectin at cumulative doses of 200, 400 and 600 ug/kg; format: in vivo, human
Experimental: On Days 1, 4, 8 and 15, patients had their scalp inspected for viable nits and their hair shampooed (prior to dosing, if the day for scalp inspection was also a "dosing" day). The rinse water was filtered through a towel that enabled the number of lice (for each stage of nymphs and/or adult lice) to be recorded. An independent qualitative assessment was performed on a subset of towels. All patients were also seen on Days 5 and 9 for the assessment of clinical adverse experiences.
The primary analysis was based on treatment outcome (success or failure) on Day 15. "treatment success" is defined to mean that no live lice were observed on Day 15. "Reinfestation" corresponds to the condition where the patient, previously free of lice (including any stage nymphs and/or adult lice) on Day 8, is infested thereafter with adult lice. "Reinfestation" also corresponds to the condition where the patient, previously free of lice and nits, is infested thereafter with adult lice and first and second stage nymphs. The percent of treatment success was calculated.
(§1) Three groups of patients were treated.

[2] = Example 7: ivermectin plasma levels in fasted and fed state; format: in vivo, human; conditions: 30 mg oral; high fat meal vs fasting, three weeks apart
head lice [3] = experiment: Example 8: comparison of head lice treatment using orally administered ivermectin at cumulative doses of 800, 1200 and 600 ug/kg and shampoo cleaning; format: in vivo, human; conditions: for Treatment success (%) Day 15: washing shampoo the day after each dose
Experimental: On Days 1, 4 and 8, patients had their scalp inspected for nits and lice. Their hair was shampooed on Days 2, 5, 9, and 15. The rinse water was filtered through a towel that enabled the number of lice (for each stage of nymph and/or adult lice) to be recorded. An independent qualitative assessment was performed on those towels with live lice at Day 15. Clinical adverse experiences were collected at all visits.
The primary analysis was based on treatment outcome (success or failure) on Day 15. "Treatment success" is defined to mean that no live lice were observed on Day 15, or, if lice were present on Day 15, that they were the result of reinfestation. "Reinfestation" corresponds to the condition where the patient, previously free of lice (including any stage nymphs and/or adult lice) on Day 9, is infested thereafter with adult lice. Patients who were reinfested were counted as successes. The percent of treatment success was calculated.
as §1

[4] = tested on: glutamate-gated chloride ion channels; conditions: invertebrate nerve and muscle cells; cited from earlier work
[5] = tested on: mammalian ligand-gated chloride channels; conditions: cited from earlier work
Onchocerca volvulus [6] = conditions: cited from earlier work
[7] = tested on: Strongyloides stercoralis; conditions: cited from earlier work
[8] = ivermectin; cited from earlier work
Onchocerca volvulus [9] = conditions: single oral dose, cited from earlier work
[10] = tested on: adult worm of any species of Filarioidea; conditions: causing lymphatic filariasis, tropical pulmonary eosinophilia syndrome, lymphadenitis or lymphangitis; cited from earlier work
[11] = cited from earlier work
Pediculosis capitis = conditions: 200 ug/kg single oral dose, 26 patients; cited from earlier work
head lice [12] = conditions: single topical application; cited from earlier work
head lice [13] = conditions: single oral dose 100-200 ug/kg; cited from earlier work
nematodes = conditions: cited from earlier work

mixture containing at least 90% 5-O-demethyl-22,23-dihydroavermectin A1a and less than 10% 5-O-demethyl-25-de(1-methylpropyl)-22,23-dihyro-25-(1-methylethyl) avermectin A1a [ivermectin]
success rate, comparison of groups (head lice [1]; 200 ug/kg doses on Days 1, 4 and 8): highest success rate
Treatment success (%) Day 15 (head lice [1]; Group 1: oral 200 ug/kg on Day 1, 29 patients): 52%
Treatment success (%) Day 15 (head lice [1]; Group 2: oral 200 ug/kg on Days 1 and 8, 28 patients): 68%
Treatment success (%) Day 15 (head lice [1]; Group 3: oral 200 ug/kg on Days 1, 4 and 8, 31 patients): 81%
increase in bioavailability, fed vs fasted state [2]: 2.5 times
Treatment success (%) Day 15 (head lice [3]; Group 1: oral 400 ug/kg on Days 1 and 8, 57 patients): 98.2%
Treatment success (%) Day 15 (head lice [3]; Group 2: oral 400 ug/kg on Days 1, 4 and 8, 60 patients): 100%
Treatment success (%) Day 15 (head lice [3]; Group 3: oral 200 ug/kg on Days 1, 4 and 8, 57 patients): 100%
success rates, comparison of groups (head lice [3]; all three study groups, Day 15): comparable success rates
binding affinity to glutamate-gated chloride ion channels [4]: selectively binds with high affinity
effect of binding on cell membrane and parasite [4]: increase in the permeability of the cell membrane to chloride ions with hyperpolarization of the nerve or muscle cell, resulting in paralysis and death of the parasite
affinity for mammalian ligand-gated chloride channels [5]: low affinity
activity against the adult form (Onchocerca volvulus [6]; adult form): not against the adult form
activity against tissue microfilariae (Onchocerca volvulus [6]; tissue microfilariae): active against the tissue microfilariae
activity against Strongyloides stercoralis [7]: limited to the intestinal stages
plasma half-life [8]: about 12 hours
dermal microfilarial density (Onchocerca volvulus [9]; after one month): near zero
maintenance of low microfilarial level (Onchocerca volvulus [9]): up to 12 months
activity against adult worm of any species of Filarioidea [10]: has not been shown to have any activity against adult worm
overall incidences of adverse experiences ([11]; amicrofilaremic population, mass treatment programs): 1%
laboratory abnormalities ([11]; studies of microfilaremic patients): eosinophilia, liver function abnormalities and hematuria
effectiveness against head lice (Pediculosis capitis): effectiveness of ivermectin 200 mcg/kg single dose against head lice
curative effect on head lice (head lice [12]): absolute curative effect
effect on head lice infestation (head lice [13]): significant, but not absolute, effect
activity against life-cycle stages of nematodes (nematodes): active against various life-cycle stages of many but not all nematodes
